Measured values reported in ChEMBL document CHEMBL1128700 (J Med Chem, 1995).

Key:
[1] = tested on: Human immunodeficiency virus type 1 reverse transcriptase (Human immunodeficiency virus 1), Q72547 [Y181C]; test: Percent inhibitory activity against Y181C HIV type I reverse transcriptase at a concentration of 1 uM
[2] = molecular target: Human immunodeficiency virus type 1 reverse transcriptase (Human immunodeficiency virus 1) (UniProt Q72547); test: Percent inhibitory activity against wild type (WT) HIV type I reverse transcriptase at a concentration of 1 uM
[3] = molecular target: Human immunodeficiency virus type 1 reverse transcriptase (Human immunodeficiency virus 1, UniProt Q72547); test: Compound was evaluated for inhibition of WT HIV type I reverse transcriptase.
[4] = molecular target: Human immunodeficiency virus type 1 reverse transcriptase (Human immunodeficiency virus 1, UniProt Q72547, Y181C); test: Compound was evaluated for inhibition of Y181C HIV type I reverse transcriptase.
[5] = tested on: Human immunodeficiency virus type 1 reverse transcriptase (Human immunodeficiency virus 1), Q72547 [Y181C]; settings: 10 uM
Description: Percent inhibitory activity against Y181C HIV type I reverse transcriptase at a concentration of 10 uM

Compound | inhibition [1] | inhibition [2] | IC50 [3] | IC50 [4] | inhibition [5]
CCN1c2ncccc2C(=O)Nc2c(COCc3ccccc3)cc(O)nc21 | 38% | 83% | – | – | –
C=Cc1ccnc2c1NC(=O)c1cccnc1N2C1CC1 | 16% | 83% | 0.11 µM | – | –
CCN1c2ncccc2C(=O)Nc2c(C3OCCCO3)cc(OC)nc21 | 22% | 52% | 0.8 µM | – | –
O=C1Nc2c(COc3ccccc3Cl)ccnc2N(C2CC2)c2ncccc21 | 20% | 30% | 3.05 µM | – | –
CCN1c2ncccc2C(=O)Nc2c(C3OCCCO3)cc(O)nc21 | 0% | 0% | – | – | –
O=C(O)/C=C/c1ccnc2c1NC(=O)c1cccnc1N2C1CC1 | 0% | 0% | – | – | –
O=C1Nc2c(CO)ccnc2N(C2CC2)c2ncccc21 | 4% | 34% | – | – | –
O=C1Nc2c(CNc3ccccc3)ccnc2N(C2CC2)c2ncccc21 | 41% | 87% | 0.06 µM | 1.37 µM | –
CCNc1ccc(OCc2ccnc3c2NC(=O)c2cccnc2N3C2CC2)cc1 | 58% | 88% | 0.08 µM | 0.43 µM | –
CCOC(=O)/C=C/c1ccnc2c1NC(=O)c1cccnc1N2C1CC1 | 22% | 27% | – | – | –
CCN1c2ncccc2C(=O)Nc2c(C=O)cc(O)nc21 | 6% | 36% | – | – | –
Cc1cccc(OCc2ccnc3c2NC(=O)c2cccnc2N3C2CC2)c1 | 9% | 38% | 2.43 µM | – | –
O=C1Nc2c(CN3CCCCC3)ccnc2N(C2CC2)c2ncccc21 | 20% | 29% | – | – | –
CCN1c2ncccc2C(=O)Nc2c(Cc3ccccc3)cc(O)nc21 | 42% | 67% | – | – | –
CCN1c2ncccc2C(=O)Nc2c(Cc3ccccc3)cc(=O)[nH]c21 | – | – | 0.34 µM | 1.3 µM | –
CCN1c2ncccc2C(=O)Nc2c(CO)cc(OC)nc21 | 24% | 89% | 0.05 µM | – | –
CCN1c2ncccc2C(=O)Nc2c(COCc3ccccc3)cc(=O)[nH]c21 | – | – | 0.11 µM | 1.07 µM | –
O=C1Nc2c(CSc3ccccc3)ccnc2N(C2CC2)c2ncccc21 | 14% | 44% | 1.03 µM | – | –
CCN1c2ncccc2C(=O)Nc2c(Cc3ccccc3)cc(-c3cccc(OC)c3)nc21 | 15% | 20% | – | – | –
CCN1c2ncccc2C(=O)Nc2c(COc3ccccc3)cc(OC)nc21 | 17% | 44% | 4 µM | – | –

Compound | inhibition [1] | inhibition [2] | IC50 [3] | IC50 [4] | inhibition [5]
O=C1Nc2c(COc3ccccc3O)ccnc2N(C2CC2)c2ncccc21 | 42% | 59% | 0.46 µM | – | –
O=C1Nc2c(COCCc3ccccc3)ccnc2N(C2CC2)c2ncccc21 | 28% | 55% | 0.42 µM | – | –
CCN1c2ncccc2C(=O)Nc2c(C3OCCCO3)cc(-c3cccc(OC)c3)nc21 | 7% | 40% | – | – | –
O=C1Nc2c(CN3CCOCC3)ccnc2N(C2CC2)c2ncccc21 | 21% | 50% | 1.03 µM | – | –
CCOCc1ccnc2c1NC(=O)c1cccnc1N2C1CC1 | 29% | 41% | 1.3 µM | – | –
COc1ccc(O)c(Cc2ccnc3c2NC(=O)c2cccnc2N3C2CC2)c1 | 47% | 42% | 0.85 µM | – | –
O=C(O)CCc1ccnc2c1NC(=O)c1cccnc1N2C1CC1 | 8% | 2% | – | – | –
O=C1Nc2c(CN3CCCC3)ccnc2N(C2CC2)c2ncccc21 | 16% | 51% | 0.7 µM | – | –
Cc1ccc(OCc2ccnc3c2NC(=O)c2cccnc2N3C2CC2)cc1 | 33% | 55% | 0.58 µM | – | –
O=C1Nc2c(Cc3ccccc3O)ccnc2N(C2CC2)c2ncccc21 | 50% | 75% | 0.19 µM | 1.12 µM | –
CCN1c2ncccc2C(=O)Nc2c(C=O)cc(-c3cccc(OC)c3)nc21 | 63% | 71% | 0.33 µM | 0.42 µM | –
O=C1Nc2c(/C=C/c3ccccc3)ccnc2N(C2CC2)c2ncccc21 | 25% | 23% | – | – | –
CCN1c2ncccc2C(=O)Nc2c(COc3ccccc3)cc(O)nc21 | 20% | 33% | – | – | –
CCN1c2ncccc2C(=O)Nc2c(COc3ccccc3)cc(-c3cccc(OC)c3)nc21 | 37% | 69% | 0.49 µM | – | –
N#Cc1ccc(OCc2ccnc3c2NC(=O)c2cccnc2N3C2CC2)cc1 | 11% | 57% | 0.41 µM | – | –
CCN1c2ncccc2C(=O)Nc2c(COCc3ccccc3)cc(-c3cccc(OC)c3)nc21 | 12% | 0% | – | – | –
Nc1ccc(OCc2ccnc3c2NC(=O)c2cccnc2N3C2CC2)cc1 | 49% | 91% | 0.1 µM | 1.01 µM | –
O=C1Nc2c(Cn3cccn3)ccnc2N(C2CC2)c2ncccc21 | 5% | 36% | 2.2 µM | – | –
CCN1c2ncccc2C(=O)Nc2c(COCc3ccccc3)cc(OC)nc21 | 26% | 42% | 0.92 µM | – | –
Cc1ccnc2c1NC(=O)c1cccnc1N2C1CC1 | – | 85% | – | – | 59%

Compound | inhibition [1] | inhibition [2] | IC50 [3] | IC50 [4] | inhibition [5]
O=C1Nc2c(COc3ccc([N+](=O)[O-])cc3)ccnc2N(C2CC2)c2ncccc21 | 12% | 43% | 1.13 µM | – | –
O=C1Nc2c(COCc3ccccc3)ccnc2N(C2CC2)c2ncccc21 | 37% | 67% | 0.27 µM | – | –
O=C1Nc2c(COCCCc3ccccc3)ccnc2N(C2CC2)c2ncccc21 | 20% | 29% | – | – | –
O=C1Nc2c(CSCc3ccccc3)ccnc2N(C2CC2)c2ncccc21 | 28% | 33% | – | – | –
CCN1c2ncccc2C(=O)Nc2c(C=O)cc(OC)nc21 | 38% | 78% | 0.24 µM | – | –
CCOC(=O)CCc1ccnc2c1NC(=O)c1cccnc1N2C1CC1 | 11% | 13% | – | – | –
Cc1ccc(Cc2ccnc3c2NC(=O)c2cccnc2N3C2CC2)c(O)c1 | 29% | 76% | 0.2 µM | – | –
O=C1Nc2c(Cc3ccccc3)ccnc2N(C2CC2)c2ncccc21 | 8% | 73% | 0.14 µM | – | –
O=C1Nc2c(CC3=CCNC3)ccnc2N(C2CC2)c2ncccc21 | 26% | 54% | 0.64 µM | – | –
O=C1Nc2c(CCc3ccccc3)ccnc2N(C2CC2)c2ncccc21 | 38% | 36% | – | – | –
Cc1ccccc1OCc1ccnc2c1NC(=O)c1cccnc1N2C1CC1 | 28% | 65% | 0.29 µM | – | –
COc1ccc(OCc2ccnc3c2NC(=O)c2cccnc2N3C2CC2)cc1 | 41% | 47% | 1.04 µM | – | –
CCN1c2ncccc2C(=O)Nc2c(Cc3ccccc3)cc(OC)nc21 | 0% | 0% | – | – | –
CCN1c2ncccc2C(=O)Nc2c(CO)cc(-c3cccc(OC)c3)nc21 | 0% | 16% | – | – | –
O=C1Nc2c(COc3ccccc3)ccnc2N(C2CC2)c2ncccc21 | 26% | 78% | 0.12 µM | 2.58 µM | –
O=C1Nc2c(Cn3ccnc3)ccnc2N(C2CC2)c2ncccc21 | 20% | 13% | – | – | –
C=CCOCc1ccnc2c1NC(=O)c1cccnc1N2C1CC1 | 29% | 35% | 1.41 µM | – | –
CCN1c2ncccc2C(=O)Nc2c(CO)cc(O)nc21 | 25% | 51% | 0.42 µM | – | –
